Measured values from patent US11485720B2, “Anti-infective agents” (University of Dundee, priority 2016, dated 2022).

Legend:
Type in all cases: cell-based
[1] = tested on: Plasmodium falciparum strain 3D7; experiment: Plasmodium falciparum 3D7 in vitro growth inhibition (SYBRgreen I); conditions: Plasmodium falciparum, 3D7; read-out: pEC50 for Pf 3D7 (converted)
Procedure, shortened: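 10-point, 1-in-3 dilution series from a top concentration of 50 μM; parasite growth read as SYBRgreen I fluorescence on double-stranded DNA (ex 485/em 528 nm). EC50 = concentration causing 50% parasite death, from at least 3 independent experiments.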

[2] = tested on: Cryptosporidium parvum; experiment: In vitro Crytosporidium inhibition assay; conditions: Cryptosporidium parvum; read-out: Cryptosporidium parvum pEC50 (converted)
Description: Assay Method for Measurement of In Vitro Inhibition of Crytosporidium.
These experiments were run in accordance with the method of Besssoff et. al. Antimicrob. Agents Chemother. 2013, 57:1804-1814. Results from these experiments are provided in the Experimental Results hereinafter.

[3] = tested on: Leishmania donovani; experiment: Ld-cAxAm-TP-pMIC assay; conditions: read-out: Ld-cAxAm-TP-pMIC pEC50 (converted)
[4] = tested on: Hep G2; experiment: Hep G2 in-vitro cytotoxicity assay; conditions: Homo sapiens, HepG2, read-out: Hs HEPG2 pEC50 (converted)
Procedure, shortened: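 Hep G2 human hepatocyte carcinoma cells serve as a general mammalian cell toxicity indicator, following the Mersch-Sundermann procedure.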

**Q.** Which results are given for O=C(NCC1CCCCC1)c1cc(=O)c2cc(F)cc(O)c2o1 [Example 70, N-(cyclohexylmethyl)-6-fluoro-8-hydroxy-4-oxo-4H-chromene-2-carboxamide]?
**A.** EC50 [1]: 0.1 µM; EC50 [2]: 0.0398 µM; EC50 [3]: 0.794 µM; EC50 [4]: 31.6 µM
